How the values were obtained:
[1] = target: Aurora kinase B (Homo sapiens) (UniProt Q96GD4); test: Inhibition of human full length AurB expressed in baculovirus assessed as substrate phosphorylation using fluorescence-labelled peptides as substrate at 0.06 uM after 90 mins by microfluidic peptide phosphorylation assay
[2] = target: T1, Testis-specific serine/threonine-protein kinase 1 (Homo sapiens) (UniProt Q9BXA7); test: Inhibition of human full length TSSK1 expressed in baculovirus assessed as substrate phosphorylation using fluorescence-labelled peptides as substrate at 70 uM after 90 mins by microfluidic peptide phosphorylation assay
T1 sequence (whole entry): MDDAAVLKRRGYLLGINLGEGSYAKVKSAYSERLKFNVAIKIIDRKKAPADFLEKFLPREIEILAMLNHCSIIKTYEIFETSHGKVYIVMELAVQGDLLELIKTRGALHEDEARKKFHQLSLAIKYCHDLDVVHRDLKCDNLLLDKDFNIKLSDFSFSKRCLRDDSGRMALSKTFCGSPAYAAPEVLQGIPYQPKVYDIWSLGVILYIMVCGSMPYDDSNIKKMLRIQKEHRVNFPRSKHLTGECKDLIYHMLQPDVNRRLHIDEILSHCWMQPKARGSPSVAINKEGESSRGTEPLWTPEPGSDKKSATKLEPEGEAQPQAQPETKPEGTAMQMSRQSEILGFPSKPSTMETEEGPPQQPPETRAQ

[3] = target: Tyrosine-protein kinase ABL1 (Homo sapiens) (UniProt P00519); test: Inhibition of human full-length ABL expressed in baculovirus assessed as substrate phosphorylation using fluorescence-labelled peptides as substrate at 420 uM after 90 mins by microfluidic peptide phosphorylation assay
Sequence of Tyrosine-protein kinase ABL1 (Homo sapiens) (P00519 whole entry, the tested form may be a part): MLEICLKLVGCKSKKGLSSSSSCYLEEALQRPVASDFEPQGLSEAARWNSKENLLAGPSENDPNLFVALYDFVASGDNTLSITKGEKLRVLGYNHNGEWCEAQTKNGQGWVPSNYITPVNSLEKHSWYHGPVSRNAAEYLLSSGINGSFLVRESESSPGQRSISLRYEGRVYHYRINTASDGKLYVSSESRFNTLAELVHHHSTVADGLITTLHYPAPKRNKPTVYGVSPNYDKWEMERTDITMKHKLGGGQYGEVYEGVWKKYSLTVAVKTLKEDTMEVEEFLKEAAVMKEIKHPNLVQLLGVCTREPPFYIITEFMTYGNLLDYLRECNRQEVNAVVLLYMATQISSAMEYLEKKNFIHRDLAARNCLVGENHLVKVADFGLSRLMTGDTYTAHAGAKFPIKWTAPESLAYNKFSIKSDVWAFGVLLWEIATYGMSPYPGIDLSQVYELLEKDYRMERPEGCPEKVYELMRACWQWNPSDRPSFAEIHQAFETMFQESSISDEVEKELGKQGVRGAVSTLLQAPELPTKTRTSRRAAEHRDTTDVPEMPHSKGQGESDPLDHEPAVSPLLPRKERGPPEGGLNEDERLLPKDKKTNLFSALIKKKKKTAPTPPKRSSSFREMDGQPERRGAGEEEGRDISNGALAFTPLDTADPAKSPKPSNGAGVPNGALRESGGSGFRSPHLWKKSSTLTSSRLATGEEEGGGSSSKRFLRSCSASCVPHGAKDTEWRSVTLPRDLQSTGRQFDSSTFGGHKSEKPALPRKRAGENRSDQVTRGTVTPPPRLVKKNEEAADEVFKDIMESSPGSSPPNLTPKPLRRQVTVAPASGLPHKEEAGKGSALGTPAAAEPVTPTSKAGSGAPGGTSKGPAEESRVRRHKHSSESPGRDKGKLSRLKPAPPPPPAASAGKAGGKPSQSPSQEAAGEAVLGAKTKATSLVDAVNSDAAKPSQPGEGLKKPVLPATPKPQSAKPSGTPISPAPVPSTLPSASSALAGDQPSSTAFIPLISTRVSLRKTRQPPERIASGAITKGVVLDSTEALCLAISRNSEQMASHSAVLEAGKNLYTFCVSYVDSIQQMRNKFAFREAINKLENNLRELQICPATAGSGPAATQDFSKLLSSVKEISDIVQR

[4] = target: Mitogen-activated protein kinase 14 (Homo sapiens) (UniProt Q16539); test: Inhibition of human truncated p38 alpha expressed in Escherichia coli cell assessed as substrate phosphorylation using fluorescence-labelled peptides as substrate at 95 uM after 90 mins by microfluidic peptide phosphorylation assay
Sequence of Mitogen-activated protein kinase 14 (Homo sapiens) (Q16539 whole entry, the tested form may be a part): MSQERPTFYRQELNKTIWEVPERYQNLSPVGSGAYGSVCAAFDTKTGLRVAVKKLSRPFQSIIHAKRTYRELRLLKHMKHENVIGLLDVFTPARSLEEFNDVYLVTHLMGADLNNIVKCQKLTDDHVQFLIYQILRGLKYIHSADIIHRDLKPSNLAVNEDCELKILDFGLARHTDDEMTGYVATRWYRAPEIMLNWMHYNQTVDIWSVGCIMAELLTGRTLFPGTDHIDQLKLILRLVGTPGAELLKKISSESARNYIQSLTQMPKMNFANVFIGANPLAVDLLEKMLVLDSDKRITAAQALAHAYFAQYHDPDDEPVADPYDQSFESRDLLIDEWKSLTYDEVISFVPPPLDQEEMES

[5] = target: Proto-oncogene tyrosine-protein kinase Src (Homo sapiens) (UniProt P12931); test: Inhibition of human full length SRC expressed in baculovirus assessed as substrate phosphorylation using fluorescence-labelled peptides as substrate at 95 uM after 90 mins by microfluidic peptide phosphorylation assay
Sequence of Proto-oncogene tyrosine-protein kinase Src (Homo sapiens) (P12931 2-536 limits assumed): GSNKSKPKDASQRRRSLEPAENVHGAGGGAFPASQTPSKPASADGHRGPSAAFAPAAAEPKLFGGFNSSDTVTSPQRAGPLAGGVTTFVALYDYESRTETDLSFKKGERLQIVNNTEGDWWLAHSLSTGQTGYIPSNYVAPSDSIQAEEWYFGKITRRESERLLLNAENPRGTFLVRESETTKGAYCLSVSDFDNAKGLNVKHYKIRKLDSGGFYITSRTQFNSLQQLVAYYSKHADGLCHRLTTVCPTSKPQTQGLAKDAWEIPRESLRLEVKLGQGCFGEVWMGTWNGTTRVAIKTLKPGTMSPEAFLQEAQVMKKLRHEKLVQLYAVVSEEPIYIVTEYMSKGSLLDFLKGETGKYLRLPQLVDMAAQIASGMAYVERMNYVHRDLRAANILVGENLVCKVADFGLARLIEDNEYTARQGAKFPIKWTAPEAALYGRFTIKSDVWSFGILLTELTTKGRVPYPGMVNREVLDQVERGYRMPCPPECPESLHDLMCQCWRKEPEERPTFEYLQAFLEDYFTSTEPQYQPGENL

[6] = target: Calcium/calmodulin-dependent protein kinase type II subunit delta (Homo sapiens) (UniProt Q13557); test: Inhibition of human full length CAMK2D expressed in baculovirus assessed as substrate phosphorylation using fluorescence-labelled peptides as substrate at 9 uM after 90 mins by microfluidic peptide phosphorylation assay
Sequence of Calcium/calmodulin-dependent protein kinase type II subunit delta (Homo sapiens) (Q13557 whole entry, the tested form may be a part): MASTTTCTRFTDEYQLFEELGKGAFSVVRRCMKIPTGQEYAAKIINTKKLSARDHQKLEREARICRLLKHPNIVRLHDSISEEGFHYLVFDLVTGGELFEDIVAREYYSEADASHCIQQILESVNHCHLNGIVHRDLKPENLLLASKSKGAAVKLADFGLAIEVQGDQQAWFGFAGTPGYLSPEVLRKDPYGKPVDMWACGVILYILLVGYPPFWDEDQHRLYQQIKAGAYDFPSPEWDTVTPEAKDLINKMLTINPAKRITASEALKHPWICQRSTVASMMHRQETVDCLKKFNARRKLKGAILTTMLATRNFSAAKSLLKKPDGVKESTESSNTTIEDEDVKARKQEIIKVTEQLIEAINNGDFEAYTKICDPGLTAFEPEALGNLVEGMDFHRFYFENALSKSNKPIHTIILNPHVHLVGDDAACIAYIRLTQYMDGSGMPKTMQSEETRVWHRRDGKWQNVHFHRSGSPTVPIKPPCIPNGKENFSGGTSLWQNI

[7] = target: Insulin receptor (Homo sapiens) (UniProt P06213); test: Inhibition of human INSR catalytic domain expressed in baculovirus assessed as substrate phosphorylation using fluorescence-labelled peptides as substrate at 9 uM after 90 mins by microfluidic peptide phosphorylation assay
[8] = target: Mitogen-activated protein kinase 14 (Homo sapiens) (UniProt Q16539); test: Inhibition of human truncated p38 alpha expressed in Escherichia coli cell assessed as substrate phosphorylation using fluorescence-labelled peptides as substrate at 1000 uM after 90 mins by microfluidic peptide phosphorylation assay
[9] = target: Ribosomal protein S6 kinase alpha-2 (Homo sapiens) (UniProt Q15349); test: Inhibition of human full length RSK3 expressed in baculovirus assessed as substrate phosphorylation using fluorescence-labelled peptides as substrate at 1000 uM after 90 mins by microfluidic peptide phosphorylation assay
[10] = target: Calcium/calmodulin-dependent protein kinase type II subunit beta (Homo sapiens) (UniProt Q13554); test: Inhibition of human CAMK2 beta catalytic domain expressed in baculovirus assessed as substrate phosphorylation using fluorescence-labelled peptides as substrate at 2 uM after 90 mins by microfluidic peptide phosphorylation assay
Sequence of Calcium/calmodulin-dependent protein kinase type II subunit beta (Homo sapiens) (Q13554 whole entry, the tested form may be a part): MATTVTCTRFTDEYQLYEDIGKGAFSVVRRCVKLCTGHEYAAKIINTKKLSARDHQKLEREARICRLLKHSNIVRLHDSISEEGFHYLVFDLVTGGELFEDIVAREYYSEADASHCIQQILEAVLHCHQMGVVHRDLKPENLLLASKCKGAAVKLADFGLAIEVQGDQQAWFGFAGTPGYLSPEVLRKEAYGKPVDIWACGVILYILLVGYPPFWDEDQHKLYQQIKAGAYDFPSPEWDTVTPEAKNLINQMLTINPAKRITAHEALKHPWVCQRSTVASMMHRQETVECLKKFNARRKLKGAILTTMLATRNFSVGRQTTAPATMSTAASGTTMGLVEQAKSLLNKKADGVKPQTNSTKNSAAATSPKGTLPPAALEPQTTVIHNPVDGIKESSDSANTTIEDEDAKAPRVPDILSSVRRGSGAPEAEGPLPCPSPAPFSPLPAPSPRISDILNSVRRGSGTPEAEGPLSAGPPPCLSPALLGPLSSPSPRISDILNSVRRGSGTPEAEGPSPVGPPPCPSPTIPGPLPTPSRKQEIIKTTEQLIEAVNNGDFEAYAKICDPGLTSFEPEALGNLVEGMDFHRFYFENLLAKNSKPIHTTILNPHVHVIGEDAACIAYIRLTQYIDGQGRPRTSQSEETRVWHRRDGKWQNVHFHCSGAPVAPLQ

[11] = target: Mitogen-activated protein kinase 14 (Homo sapiens) (UniProt Q16539); test: Inhibition of human truncated p38 alpha expressed in Escherichia coli cell assessed as substrate phosphorylation using fluorescence-labelled peptides as substrate at […] after 90 mins by microfluidic peptide phosphorylation assay
[12] = target: T2, Protein kinase C epsilon type (Homo sapiens) (UniProt Q02156); test: Inhibition of human truncated PKC epsilon expressed in baculovirus assessed as substrate phosphorylation using fluorescence-labelled peptides as substrate at 8 uM after 90 mins by microfluidic peptide phosphorylation assay
T2 sequence (whole entry): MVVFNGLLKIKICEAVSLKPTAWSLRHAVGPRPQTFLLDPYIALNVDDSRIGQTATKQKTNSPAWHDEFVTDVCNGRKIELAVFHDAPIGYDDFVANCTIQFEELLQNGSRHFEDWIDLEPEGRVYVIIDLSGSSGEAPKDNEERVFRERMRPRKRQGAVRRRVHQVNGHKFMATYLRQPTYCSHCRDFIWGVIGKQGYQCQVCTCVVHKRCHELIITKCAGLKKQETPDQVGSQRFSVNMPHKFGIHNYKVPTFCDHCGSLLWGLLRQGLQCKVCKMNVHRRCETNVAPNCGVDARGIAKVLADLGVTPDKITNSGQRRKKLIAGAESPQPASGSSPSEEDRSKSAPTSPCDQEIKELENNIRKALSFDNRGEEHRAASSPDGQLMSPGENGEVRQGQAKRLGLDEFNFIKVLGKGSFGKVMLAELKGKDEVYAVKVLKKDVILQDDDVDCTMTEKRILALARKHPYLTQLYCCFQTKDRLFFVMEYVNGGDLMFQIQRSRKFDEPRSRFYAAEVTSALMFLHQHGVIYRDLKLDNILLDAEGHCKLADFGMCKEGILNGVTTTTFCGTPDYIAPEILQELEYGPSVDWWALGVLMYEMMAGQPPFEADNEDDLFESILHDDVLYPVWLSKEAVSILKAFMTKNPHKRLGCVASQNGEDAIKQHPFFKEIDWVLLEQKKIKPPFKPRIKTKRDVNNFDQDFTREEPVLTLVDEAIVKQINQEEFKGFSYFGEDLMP

[13] = target: Rho-associated protein kinase 2 (Homo sapiens) (UniProt O75116); test: Inhibition of human ROCK2 catalytic domain expressed in baculovirus assessed as substrate phosphorylation using fluorescence-labelled peptides as substrate at 8 uM after 90 mins by microfluidic peptide phosphorylation assay
Sequence of Rho-associated protein kinase 2 (Homo sapiens) (O75116 whole entry, looked up, the tested form may be a part): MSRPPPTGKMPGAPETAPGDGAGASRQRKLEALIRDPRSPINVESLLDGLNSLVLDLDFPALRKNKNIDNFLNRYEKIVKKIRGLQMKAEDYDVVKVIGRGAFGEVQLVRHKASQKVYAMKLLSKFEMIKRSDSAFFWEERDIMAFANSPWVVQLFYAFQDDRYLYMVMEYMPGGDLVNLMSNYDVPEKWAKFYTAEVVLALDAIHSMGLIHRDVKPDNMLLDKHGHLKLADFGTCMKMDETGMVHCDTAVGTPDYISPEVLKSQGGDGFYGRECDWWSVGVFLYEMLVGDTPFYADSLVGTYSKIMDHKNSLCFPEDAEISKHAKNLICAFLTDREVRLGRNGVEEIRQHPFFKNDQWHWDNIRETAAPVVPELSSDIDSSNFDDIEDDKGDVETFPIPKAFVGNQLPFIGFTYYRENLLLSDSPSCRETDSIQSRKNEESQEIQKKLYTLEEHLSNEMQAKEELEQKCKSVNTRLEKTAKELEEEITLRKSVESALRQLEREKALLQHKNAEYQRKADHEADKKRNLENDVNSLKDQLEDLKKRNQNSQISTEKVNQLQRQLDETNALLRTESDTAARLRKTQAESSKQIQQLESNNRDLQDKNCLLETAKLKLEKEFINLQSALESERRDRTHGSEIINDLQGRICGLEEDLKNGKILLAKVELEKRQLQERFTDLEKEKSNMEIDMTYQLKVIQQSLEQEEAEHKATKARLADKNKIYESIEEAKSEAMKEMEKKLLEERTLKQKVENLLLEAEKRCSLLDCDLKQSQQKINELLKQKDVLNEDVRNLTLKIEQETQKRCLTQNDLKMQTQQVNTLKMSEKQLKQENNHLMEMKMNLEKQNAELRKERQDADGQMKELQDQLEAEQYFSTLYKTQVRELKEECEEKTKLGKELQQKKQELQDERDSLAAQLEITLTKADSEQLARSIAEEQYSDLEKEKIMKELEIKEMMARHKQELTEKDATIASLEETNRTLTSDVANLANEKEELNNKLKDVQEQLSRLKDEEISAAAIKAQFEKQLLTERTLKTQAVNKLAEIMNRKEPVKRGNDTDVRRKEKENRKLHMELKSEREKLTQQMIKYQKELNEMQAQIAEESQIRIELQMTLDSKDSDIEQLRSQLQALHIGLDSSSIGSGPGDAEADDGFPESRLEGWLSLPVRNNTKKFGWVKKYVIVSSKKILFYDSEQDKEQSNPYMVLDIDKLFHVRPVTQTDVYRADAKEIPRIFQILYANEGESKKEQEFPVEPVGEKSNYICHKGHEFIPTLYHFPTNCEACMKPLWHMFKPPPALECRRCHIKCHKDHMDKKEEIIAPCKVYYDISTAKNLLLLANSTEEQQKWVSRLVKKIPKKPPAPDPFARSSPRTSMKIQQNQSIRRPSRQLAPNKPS

[14] = target: Serine/threonine-protein kinase pim-1 (Homo sapiens) (UniProt P11309); test: Inhibition of human full length PIM1 expressed in baculovirus assessed as substrate phosphorylation using fluorescence-labelled peptides as substrate at 0.1 uM after 90 mins by microfluidic peptide phosphorylation assay

Sequence of Aurora kinase B (Homo sapiens) (Q96GD4 whole entry): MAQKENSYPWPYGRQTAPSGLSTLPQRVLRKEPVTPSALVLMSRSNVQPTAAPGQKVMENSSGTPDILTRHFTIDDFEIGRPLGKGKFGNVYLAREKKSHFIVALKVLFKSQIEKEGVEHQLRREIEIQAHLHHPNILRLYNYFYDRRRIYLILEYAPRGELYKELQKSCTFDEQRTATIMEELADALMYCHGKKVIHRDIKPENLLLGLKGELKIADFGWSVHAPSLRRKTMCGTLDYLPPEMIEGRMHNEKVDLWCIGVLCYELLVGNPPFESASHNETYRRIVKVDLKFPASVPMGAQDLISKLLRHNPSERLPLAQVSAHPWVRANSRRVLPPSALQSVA

NC1(Cc2ccc(Cl)cc2)CCN(c2ncnc3[nH]ccc23)CC1
inhibition [1]: 0%

CNCc1ccc(-c2ncnc3[nH]cnc23)cc1
inhibition [2]: 62%

c1nc(N2CCOCC2)c2nc[nH]c2n1
inhibition [3]: 69%

NCCc1ccc(-c2ncnc3[nH]cnc23)cc1
inhibition [4]: 6.5% | inhibition [5]: 62%

NCC1CN(c2ncnc3[nH]c4cnccc4c23)CCO1 (centres undefined)
inhibition [6]: 42.5% | inhibition [7]: 2.5%

c1cnc2[nH]ccc2c1
inhibition [8]: 0% | inhibition [9]: 71%

NC1CCN(c2ncnc3[nH]ccc23)CC1
inhibition [10]: 25.5%

COC(=O)c1cnc(Nc2cnc(C#N)cn2)cc1NCC1CCNCC1
inhibition [11]: 2%

NCC1CCN(c2ncnc3[nH]ccc23)CC1
inhibition [12]: 34% | inhibition [13]: 89.5%

C[C@H](CN(C)C)Oc1nc(Nc2cc3cccc(Cl)c3cn2)cnc1C#N
inhibition [14]: 9.5%
